Laboratory results published in patent publication US20240423949A1, “APPLICATION OF SALVIANOLIC ACID B IN PREPARING ANTI-ROTAVIRUS PREPARATION” (GUANGDONG MEDICAL UNIVERSITY, priority 2023, published 2024).

Tests used:
[1] = system: MA104 cells; assay: Toxicity of salvianolic acid B on MA104 cells (MTT assay); format: cell-based, Rhesus monkey; conditions: 72 h; for Toxicity to MA104 cells: concentration range 0-256 μM
Procedure: When the MA104 cells grew to monolayers, the cells were digested, centrifuged and resuspended, and the suspension was further diluted and then 10 μL was taken and counted on a blood cell counting plate, and the required cell volume was calculated. Cell plating was then performed in a 96-well plate with 100 μL of the cell suspension per well at a cell density of 8×10^4 per mL. Cells grown to monolayers were treated with different concentrations of salvianolic acid B for 72 h, and the toxicity of salvianolic acid B on MA104 cells was detected by MTT assay. 10 μL of MTT solution was added to each well, and the mixture was incubated in the incubator for 3-4 h. Then, the 96-well plate was taken out, and the culture solution in the well was carefully aspirated from the wells. 150 μL of DMSO was added to each well, and the mixture was shaken at a low speed for 10 min on a shaker to fully dissolve the crystal, and the absorbance was detected and recorded at a wavelength of 490 nm.
The formula for the relative cell survival rate is:
Cell survival rate={(Aexperimental group−Ablank)/(Acontrol group−Ablank)×100%}

[2] = system: Wa strain rotavirus; assay: Anti-RV adsorption effect in MA104 cells (drug before virus, MTT assay); format: cell-based; conditions: 16-256 μM
Procedure: Salvianolic acid B solutions of different concentrations were added into a 96-well culture plate of MA104 cells grown into monolayers, wherein 4 wells were repeated for each concentration of the solution, with 100 μL per well. An equal volume of ribavirin was added to the positive control group, and only an equal volume of DMEM culture solution was added to both the normal cell control group and the virus control group, and same were placed in a 5% CO2 incubator at 37° C. for incubation for 2 h. […] 1/10 volume of MTT solution was added to each well, after being incubated for 3-4 h in the incubator, the 96-well plate was taken out, the culture solution in the well was carefully aspirated, 150 uL of DMSO was added to each well, and same was placed on a shaker and shaken at a low speed for 10 min, so that the crystal was fully dissolved; and the absorbance was detected and recorded at a wavelength of 490 nm. The drug-to-virus inhibition rates were calculated and the experiment was repeated 3 times. […]

[3] = system: Wa strain rotavirus; assay: Anti-RV biosynthesis effect in MA104 cells (drug after virus, MTT assay); format: cell-based; conditions: 64-256 μM, 100 TCID50, 72 h
Procedure: 100 TCID50 virus solution (virus with 20 μg/mL trypsin at 37° C. for 30 min) was added to a 96-well culture plate of MA104 cells grown to monolayers, with 100 μL per well, and the cells were rinsed twice with PBS before addition. A normal cell control group was set, an equal volume of DMEM culture solution was added, then the 96-well plate was placed in a 5% CO2 incubator at 37° C. for incubation for 2 h, the virus solution was aspirated, different concentrations of salvianolic acid B and ribavirin were added, respectively, with 100 μL per well, and a virus control group was set and added with only a maintenance solution, with 100 μL per well. The 96-well plate was placed in a 5% CO2 incubator at 37° C. for incubation and continuous observation for 72 h and then detected by the MTT assay. A 1/10 volume of MTT solution was added to each well. After being incubated for 3-4 h in the incubator, the 96-well plate was removed, the culture solution in the well was carefully aspirated, and 150 μL of DMSO was added to each well. The plate was shaken at a low speed for 10 min on a shaker to fully dissolve the crystal, and the absorbance was detected and recorded at a wavelength of 490 nm. The drug-to-virus inhibition rates were calculated and the experiment was repeated 3 times. […]

[4] = system: Wa strain rotavirus; assay: Direct inhibitory effect on RV (drug pre-mixed with virus, MA104 cells, MTT assay); format: cell-based
Procedure: Different concentrations of salvianolic acid B solution with 50TCID50 virus solution (virus with 20 μg/mL trypsin at 37° C. for 30 min), DMEM with 50TCID50 virus solution, ribavirin with 50TCID50 virus solution were mixed in equal volumes and incubated in a 5% CO2 incubator at 37° C. for 2 hours. The cells were rinsed twice with PBS and added to a 96-well culture plate of MA104 cells grown to monolayers, and for the normal cell control group, an equal volume of DMEM was added. After incubated at 37° C. and 5% CO2 for 2 h, the mixed solution was aspirated and the maintenance solution was added, with 100 μL per well. The 96-well plate was placed in a 5% CO2 incubator at 37° C. for continuous observation for 72 h and then detected by the MTT assay. A 1/10 volume of MTT solution was added to each well. After incubated for 3-4 h in the incubator, the 96-well plate was removed, the culture solution in the well was carefully aspirated, and 150 µL of DMSO was added to each well. The plate was shaken at a low speed for 10 min on a shaker to fully dissolve the crystal, and the absorbance was detected and recorded at a wavelength of 490 nm. The drug-to-virus inhibition rates were calculated and the experiment was repeated 3 times.
Virus inhibition rate (%)=(average A value of drug group−average A value of virus control group)/(average A value of normal cell control group−average A value of virus control group)×100%

[5] = system: RV structural protein VP6 gene expression; assay: Gene expression level of RV structural protein VP6 in RV infected MA104 cells (real time PCR); format: cell-based, rotavirus
Procedure: (1) In order to further verify whether salvianolic acid B has an inhibitory effect on RV synthesis, a drug group (MA104 cells after RV infection were treated with different concentrations of salvianolic acid B), a ribavirin group, a normal group, and an RV group were set up. The supernatant was removed and PBS rinse was performed twice. 1 mL of Trizol reagent was added to each well and allowed to stand for 5 minutes. After blowing the cells with a gun tip, they were collected in a 1.5 mL enzyme free EP tube. 200 μL of chloroform was add to the tube. After 15 seconds of vortex shock, the tube was placed at room temperature for 5 min, and centrifuged (4° C., 12000 r/min for 15 min). The centrifuged sample was divided into three layers, namely, the colorless upper layer, the white middle layer and the red lower layer. […]
Real time quantitative PCR was performed using SYBR Green I fluorescence labeling to detect the expression levels of VP6 in the drug group, ribavirin group, normal group, and RV group, SYBR® Premix Pro Taq HS qPCR Kit II reagent kit was adopted, and GAPDH was selected as an internal reference. In the experiment, a real-time fluorescent quantitative PCR amplification reaction system was prepared according to the following table with a dedicated Real-time PCR plate of Axygen, and the reaction solution was prepared on ice (the total reaction was is 10 μL).

O=C(/C=C/c1ccc(O)c2c1[C@@H](C(=O)O[C@H](Cc1ccc(O)c(O)c1)C(=O)O)[C@H](c1ccc(O)c(O)c1)O2)O[C@H](Cc1ccc(O)c(O)c1)C(=O)O [salvianolic acid B, Salvianolic acid B]
Cell survival rate ([1]; 512 μM, MA104 cells): below 95%
Toxicity to MA104 cells [1]: no obvious toxicity
Toxicity to MA104 cells ([1]; listed as Salvianolic acid B): no drug toxicity
Anti-RV adsorption effect (conclusion) [2]: no significant anti-RV adsorption effect
Virus inhibition rate (anti-RV adsorption) ([2]; 100TCID50, 72 h): below 50%
Virus inhibition rate (anti-RV biosynthesis) [3]: higher than 50%
Direct inhibitory effect on RV (conclusion) ([4]; 16-256 μM): no direct inhibitory effect
inhibition at 16 µM ([4]; Rotavirus, MA104, 16 μM (first of five values over 16-256 μM), 50TCID50, 72 h, read-out: Inhibitory rate directly inhibiting RV): 14.2%
inhibition at 32 µM ([4]; Rotavirus, MA104, 32 μM (second of five values over 16-256 μM), 50TCID50, 72 h, read-out: Inhibitory rate directly inhibiting RV): 15.2%
inhibition at 64 µM ([4]; Rotavirus, MA104, 64 μM (third of five values over 16-256 μM), 50TCID50, 72 h, read-out: Inhibitory rate directly inhibiting RV): 16.5%
inhibition at 128 µM ([4]; Rotavirus, MA104, 128 μM (fourth of five values over 16-256 μM), 50TCID50, 72 h, read-out: Inhibitory rate directly inhibiting RV): 15.8%
inhibition at 256 µM ([4]; Rotavirus, MA104, 256 μM (fifth of five values over 16-256 μM), 50TCID50, 72 h, read-out: Inhibitory rate directly inhibiting RV): 12.7%
Expression level of VP6 compared with the RV group ([5]; 64, 128 and 256 μM, dose-response correlation): significantly reduced

NC(=O)c1ncn([C@@H]2O[C@H](CO)[C@@H](O)[C@H]2O)n1 [ribavirin, reference compound]
Gene expression of VP6 compared to the RV group ([5]; ribavirin group): significantly reduced
